Measurements as given in patent publication US10202361B2, “Pyridazinones as herbicides” (E I DU PONT DE NEMOURS AND COMPANY, priority 2014, dated 2019).
Like-named read-outs stand apart in the source and are kept apart here.

Key:
Type in all cases: in vivo
[1] = test system: ducksalad (Heteranthera limosa); assay: Test B flooded paddy test; settings: Heteranthera limosa, 312 h; Flood, 125 g ai/ha; scale of 0 to 100, 0 is no effect, 100 is complete control; 13 to 15 d; read-out: Plant response rating, Ducksalad
Method in brief: (§1)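 2-leaf plants; pots flooded 3 cm over soil, compound dosed into floodwater, depth kept constant. Greenhouse, 13–15 d. Visual rating vs controls, 0 (no effect) to 100 (complete control); dash = not tested.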

[2] = test system: sedge, umbrella (small-flower umbrella sedge, Cyperus difformis); assay: Test B flooded paddy test; settings: Cyperus difformis, 312 h; Flood, 125 g ai/ha; scale of 0 to 100, 0 is no effect, 100 is complete control; 13 to 15 d; read-out: Plant response rating, Sedge, Umbrella
Method in brief: as §1

[3] = test system: barnyardgrass (Echinochloa crus-galli); assay: Test B flooded paddy test; settings: Echinochloa crus-galli, 312 h; Flood, 125 g ai/ha; scale of 0 to 100, 0 is no effect, 100 is complete control; 13 to 15 d; read-out: Plant response rating, Barnyardgrass
Method in brief: as §1

rice (Oryza sativa) = assay: Test B flooded paddy test; settings: Oryza sativa, 312 h; Flood, 125 g ai/ha; scale of 0 to 100, 0 is no effect, 100 is complete control; 13 to 15 d; read-out: Plant response rating, Rice
Method in brief: as §1

[4] = test system: chickweed (common chickweed, Stellaria media); assay: Test C postemergence greenhouse herbicide test
[5] = test system: surinam grass (Brachiaria decumbens); assay: Test E pre-/postemergence greenhouse herbicide test; settings: Preemergence, scale 0 to 100
[6] = test system: pigweed (Amaranthus retroflexus); assay: Test C pre-/postemergence greenhouse herbicide test; settings: Amaranthus retroflexus, Pigweed, read-out: Plant response rating; for pest or weed control at 31 g/ha: 31 g ai/ha; for pest or weed control at 62 g/ha: 62 g ai/ha; for pest or weed control at 125 g/ha: 125 g ai/ha; for pest or weed control at 250 g/ha: 250 g ai/ha
Method in brief: (§2)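 Plant response is scored on a 0–100 scale, where 100 means complete control, by visual comparison with controls 13 to 15 d after greenhouse treatment. Applications are made pre- and postemergence using a surfactant-containing, non-phytotoxic solvent formulation.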

[7] = test system: johnsongrass (Sorghum halepense); assay: as above; settings: Sorghum halepense, Johnsongrass, read-out: Plant response rating; for pest or weed control at 31 g/ha: 31 g ai/ha; for pest or weed control at 62 g/ha: 62 g ai/ha; for pest or weed control at 125 g/ha: 125 g ai/ha; for pest or weed control at 250 g/ha: 250 g ai/ha
Method in brief: as §2

[8] = test system: ragweed (common ragweed, Ambrosia elatior); assay: as above; settings: Ambrosia artemisiifolia, Ragweed, read-out: Plant response rating; for pest or weed control at 31 g/ha: 31 g ai/ha; for pest or weed control at 62 g/ha: 62 g ai/ha; for pest or weed control at 125 g/ha: 125 g ai/ha; for pest or weed control at 250 g/ha: 250 g ai/ha
Method in brief: as §2

[9] = test system: crabgrass, Large (large crabgrass, Digitaria sanguinalis); assay: as above; settings: Digitaria sanguinalis, Crabgrass, Large, read-out: Plant response rating; for pest or weed control at 31 g/ha: 31 g ai/ha; for pest or weed control at 62 g/ha: 62 g ai/ha; for pest or weed control at 125 g/ha: 125 g ai/ha; for pest or weed control at 250 g/ha: 250 g ai/ha
Method in brief: as §2

[10] = test system: oilseed rape (Brassica napus); assay: as above; settings: Oilseed Rape
Method in brief: as §2

[11] = test system: wheat (winter wheat, Triticum aestivum); assay: as above; settings: Triticum aestivum, Wheat, read-out: Plant response rating; for plant injury at 62 g/ha: 62 g ai/ha; for plant injury at 125 g/ha: 125 g ai/ha; for plant injury at 250 g/ha: 250 g ai/ha
Method in brief: as §2

COc1cc(=O)n(-c2ccc(C(F)(F)F)cc2)nc1Cc1ccnc(C(F)(F)F)c1 [Compound 16, 5-methoxy-2-[4-(trifluoromethyl)phenyl]-6-[[2-(trifluoromethyl)-4-pyridinyl]methyl]-3(2H)-pyridazinone]
pest or weed control at 125 g/ha [1]: 20% | pest or weed control at 125 g/ha [2]: 80% | pest or weed control at 125 g/ha [3]: 45% | plant injury at 125 g/ha (rice (Oryza sativa)): 35% | Plant response rating ([4]; 31 g ai/ha): 80 | Plant response rating ([4]; 62 g ai/ha): 90 | Plant response rating ([4]; 125 g ai/ha): 90 | Plant response rating ([4]; 250 g ai/ha): 98 | Plant response rating: Surinam Grass ([5]; 62 g ai/ha): 25 | Plant response rating: Surinam Grass ([5]; 125 g ai/ha): 40 | Plant response rating: Surinam Grass ([5]; 250 g ai/ha): 98 | pest or weed control at 31 g/ha ([6]; post-emergence, Postemergence): 55% | pest or weed control at 62 g/ha ([6]; post-emergence, Postemergence): 90% | pest or weed control at 125 g/ha ([6]; post-emergence, Postemergence): 95% | pest or weed control at 250 g/ha ([6]; post-emergence, Postemergence): 95% | pest or weed control at 31 g/ha ([6]; pre-emergence, Preemergence): 100% | pest or weed control at 62 g/ha ([6]; pre-emergence, Preemergence): 100% | pest or weed control at 125 g/ha ([6]; pre-emergence, Preemergence): 100% | pest or weed control at 250 g/ha ([6]; pre-emergence, Preemergence): 100% | pest or weed control at 31 g/ha ([7]; post-emergence, Postemergence): 10% | pest or weed control at 62 g/ha ([7]; post-emergence, Postemergence): 10% | pest or weed control at 125 g/ha ([7]; post-emergence, Postemergence): 20% | pest or weed control at 250 g/ha ([7]; post-emergence, Postemergence): 35% | pest or weed control at 31 g/ha ([7]; pre-emergence, Preemergence): 60% | pest or weed control at 62 g/ha ([7]; pre-emergence, Preemergence): 75% | pest or weed control at 125 g/ha ([7]; pre-emergence, Preemergence): 85% | pest or weed control at 250 g/ha ([7]; pre-emergence, Preemergence): 98% | pest or weed control at 31 g/ha ([8]; post-emergence, Postemergence): 15% | pest or weed control at 62 g/ha ([8]; post-emergence, Postemergence): 25% | pest or weed control at 125 g/ha ([8]; post-emergence, Postemergence): 60% | pest or weed control at 250 g/ha ([8]; post-emergence, Postemergence): 60% | pest or weed control at 31 g/ha ([8]; pre-emergence, Preemergence): 20% | pest or weed control at 62 g/ha ([8]; pre-emergence, Preemergence): 65% | pest or weed control at 125 g/ha ([8]; pre-emergence, Preemergence): 65% | pest or weed control at 250 g/ha ([8]; pre-emergence, Preemergence): 100% | pest or weed control at 31 g/ha ([9]; post-emergence, Postemergence): 10% | pest or weed control at 62 g/ha ([9]; post-emergence, Postemergence): 25% | pest or weed control at 125 g/ha ([9]; post-emergence, Postemergence): 30% | pest or weed control at 250 g/ha ([9]; post-emergence, Postemergence): 35% | pest or weed control at 31 g/ha ([9]; pre-emergence, Preemergence): 98% | pest or weed control at 62 g/ha ([9]; pre-emergence, Preemergence): 98% | pest or weed control at 125 g/ha ([9]; pre-emergence, Preemergence): 100% | pest or weed control at 250 g/ha ([9]; pre-emergence, Preemergence): 100% | Plant response rating ([10]; Postemergence, 31 g ai/ha): 60 | Plant response rating ([10]; Postemergence, 62 g ai/ha): 60 | Plant response rating ([10]; Postemergence, 125 g ai/ha): 80 | Plant response rating ([10]; Preemergence, 31 g ai/ha): 65 | Plant response rating ([10]; Preemergence, 62 g ai/ha): 100 | Plant response rating ([10]; Preemergence, 125 g ai/ha): 100 | Plant response rating ([10]; Preemergence, 250 g ai/ha): 100 | plant injury at 31 g/ha ([11]; post-emergence, Postemergence, 31 g ai/ha): 5% | plant injury at 62 g/ha ([11]; post-emergence, Postemergence): 5% | plant injury at 125 g/ha ([11]; post-emergence, Postemergence): 10% | plant injury at 250 g/ha ([11]; post-emergence, Postemergence): 10% | plant injury at 62 g/ha ([11]; pre-emergence, Preemergence): 25% | plant injury at 125 g/ha ([11]; pre-emergence, Preemergence): 45% | plant injury at 250 g/ha ([11]; pre-emergence, Preemergence): 50%

CCOc1cc(=O)n(-c2ccc(F)cc2)nc1Cc1ccnc(C(F)(F)F)c1 [Compound 25, 5-ethoxy-2-(4-fluorophenyl)-6-[[2-(trifluoromethyl)-4-pyridinyl]methyl]-3 (2H)-pyridazinone]
pest or weed control at 125 g/ha [1]: 0% | pest or weed control at 125 g/ha [2]: 75% | pest or weed control at 125 g/ha [3]: 0% | plant injury at 125 g/ha (rice (Oryza sativa)): 0% | Plant response rating: Surinam Grass ([5]; 8 g ai/ha): 5 | Plant response rating: Surinam Grass ([5]; 16 g ai/ha): 10 | Plant response rating: Surinam Grass ([5]; 31 g ai/ha): 80 | Plant response rating: Surinam Grass ([5]; 62 g ai/ha): 100 | Plant response rating: Surinam Grass ([5]; 125 g ai/ha): 100 | pest or weed control at 31 g/ha ([6]; pre-emergence, Preemergence): 100% | pest or weed control at 62 g/ha ([6]; pre-emergence, Preemergence): 100% | pest or weed control at 125 g/ha ([6]; pre-emergence, Preemergence): 98% | pest or weed control at 250 g/ha ([6]; pre-emergence, Preemergence): 100% | pest or weed control at 31 g/ha ([7]; pre-emergence, Preemergence): 65% | pest or weed control at 62 g/ha ([7]; pre-emergence, Preemergence): 75% | pest or weed control at 125 g/ha ([7]; pre-emergence, Preemergence): 90% | pest or weed control at 250 g/ha ([7]; pre-emergence, Preemergence): 98% | pest or weed control at 31 g/ha ([8]; pre-emergence, Preemergence): 60% | pest or weed control at 62 g/ha ([8]; pre-emergence, Preemergence): 85% | pest or weed control at 125 g/ha ([8]; pre-emergence, Preemergence): 65% | pest or weed control at 250 g/ha ([8]; pre-emergence, Preemergence): 95% | pest or weed control at 31 g/ha ([9]; pre-emergence, Preemergence): 100% | pest or weed control at 62 g/ha ([9]; pre-emergence, Preemergence): 100% | pest or weed control at 125 g/ha ([9]; pre-emergence, Preemergence): 100% | pest or weed control at 250 g/ha ([9]; pre-emergence, Preemergence): 100% | Plant response rating ([10]; Preemergence, 31 g ai/ha): 50 | Plant response rating ([10]; Preemergence, 62 g ai/ha): 95 | Plant response rating ([10]; Preemergence, 125 g ai/ha): 95 | Plant response rating ([10]; Preemergence, 250 g ai/ha): 95 | plant injury at 62 g/ha ([11]; pre-emergence, Preemergence): 40% | plant injury at 125 g/ha ([11]; pre-emergence, Preemergence): 50% | plant injury at 250 g/ha ([11]; pre-emergence, Preemergence): 70%
